Data taken from ChEMBL document CHEMBL1649501, “Integration of pharmacokinetic and pharmacodynamic indices of orbifloxacin in beagle dogs after a single intravenous and intramuscular administration” (Antimicrob Agents Chemother, 2009).
≈ marks a conversion by molar mass, not a printed value.

Experiments:
[1] = T>MIC in Beagle dog infected with Staphylococcus intermedius at 2.5 mg/kg, im; format: functional; conditions: route intramuscular
[2] = Ratio of Cmax to MIC in Beagle dog infected with Escherichia coli at 2.5 mg/kg, im; format: functional; conditions: route intramuscular
[3] = Ratio of AUC (0 to 24 hrs) to MIC in Beagle dog infected with Proteus mirabilis at 2.5 mg/kg, im; format: functional; conditions: route intramuscular
[4] = tested on: Staphylococcus intermedius; experiment: Antibacterial activity against Staphylococcus intermedius after 30 hrs by broth microdilution method; format: functional, organism-based
[5] = Clearance in Beagle dog at 2.5 mg/kg, iv; format: ADME, organism-based, Canis lupus familiaris; parameters: dose 2.5 mg/kg, route intravenous; conditions: in vivo
Proteus mirabilis [6] = experiment: Antibacterial activity against Proteus mirabilis by broth microdilution method; format: functional
[7] = Ratio of AUC (0 to 24 hrs) to MIC in Beagle dog infected with Escherichia coli at 2.5 mg/kg, iv; format: functional
[8] = Mean residence time (0 to infinity) in Beagle dog at 2.5 mg/kg, im; format: ADME, organism-based, Canis lupus familiaris; parameters: dose 2.5 mg/kg, route intramuscular; conditions: in vivo
[9] = Elimination rate constant in Beagle dog at 2.5 mg/kg, iv; format: ADME, organism-based, Canis lupus familiaris; parameters: dose 2.5 mg/kg, route intravenous; conditions: in vivo
[10] = Terminal half life in Beagle dog at 2.5 mg/kg, iv; format: ADME, organism-based, Canis lupus familiaris; parameters: dose 2.5 mg/kg, route intravenous; conditions: in vivo, read-out: beta t1/2 (converted)
[11] = T>MIC in Beagle dog infected with Proteus mirabilis at 2.5 mg/kg, im; format: functional; conditions: route intramuscular
[12] = Mean residence time (0 to 24 hrs) in Beagle dog at 2.5 mg/kg, im; format: ADME, organism-based, Canis lupus familiaris; parameters: dose 2.5 mg/kg, route intramuscular; conditions: in vivo
Staphylococcus aureus [13] = experiment: Antibacterial activity against Staphylococcus aureus by broth microdilution method; format: functional
[14] = AUC (0 to infinity) in Beagle dog at 2.5 mg/kg, im; format: ADME, organism-based, Canis lupus familiaris; parameters: time infinity, dose 2.5 mg/kg, route intramuscular; conditions: plasma
[15] = Mean residence time (0 to 24 hrs) in Beagle dog at 2.5 mg/kg, iv; format: ADME, organism-based, Canis lupus familiaris; parameters: dose 2.5 mg/kg, route intravenous; conditions: in vivo
[16] = AUC (0 to infinity) in Beagle dog at 2.5 mg/kg, iv; format: ADME, organism-based, Canis lupus familiaris; parameters: time infinity, dose 2.5 mg/kg, route intravenous; conditions: plasma
[17] = AUC (0 to 24 hrs) in Beagle dog at 2.5 mg/kg, iv; format: ADME, organism-based, Canis lupus familiaris; parameters: time < 24 hr, dose 2.5 mg/kg, route intravenous; conditions: plasma
[18] = Tmax in Beagle dog at 2.5 mg/kg, im; format: ADME, organism-based, Canis lupus familiaris; parameters: dose 2.5 mg/kg, route intramuscular; conditions: in vivo
[19] = T>MIC in Beagle dog infected with Staphylococcus aureus at 2.5 mg/kg, im; format: functional; conditions: route intramuscular
Proteus mirabilis [20] = experiment: Antibacterial activity against Proteus mirabilis after 30 hrs by broth microdilution method; format: functional, organism-based
[21] = T>MIC in Beagle dog infected with Staphylococcus aureus at 2.5 mg/kg, iv; format: functional
[22] = T>MIC in Beagle dog infected with Proteus mirabilis at 2.5 mg/kg, iv; format: functional
[23] = Terminal half life in Beagle dog at 2.5 mg/kg, im; format: ADME, organism-based, Canis lupus familiaris; parameters: dose 2.5 mg/kg, route intramuscular; conditions: in vivo, read-out: beta t1/2 (converted)
Canis familiaris = experiment: Mean absorption time in Beagle dog at 2.5 mg/kg, im; format: ADME, organism-based, Canis lupus familiaris; parameters: dose 2.5 mg/kg, route intramuscular; conditions: in vivo
[24] = T>MIC in Beagle dog infected with Escherichia coli at 2.5 mg/kg, im; format: functional; conditions: route intramuscular
[25] = Ratio of AUC (0 to 24 hrs) to MIC in Beagle dog infected with Staphylococcus intermedius at 2.5 mg/kg, im; format: functional; conditions: route intramuscular
Escherichia coli [26] = experiment: Antibacterial activity against Escherichia coli after 30 hrs by broth microdilution method; format: functional, organism-based
[27] = Apparent volume of distribution in Beagle dog at 2.5 mg/kg, iv; format: ADME, organism-based, Canis lupus familiaris; parameters: dose 2.5 mg/kg, route intravenous; conditions: in vivo, read-out: Vz
[28] = tested on: Staphylococcus intermedius; experiment: Antibacterial activity against Staphylococcus intermedius by broth microdilution method; format: functional
Escherichia coli [29] = experiment: Antibacterial activity against Escherichia coli by broth microdilution method; format: functional
[30] = Ratio of AUC (0 to 24 hrs) to MIC50 in Beagle dog infected with Staphylococcus intermedius clinical isolate at 2.5 mg/kg, im; format: functional; conditions: route intramuscular
[31] = Ratio of AUC (0 to 24 hrs) to MIC for bactericidal action in Beagle dog infected with Staphylococcus intermedius clinical isolate at 2.5 mg/kg, im; format: functional; conditions: route intramuscular
[32] = Mean residence time (0 to infinity) in Beagle dog at 2.5 mg/kg, iv; format: ADME, organism-based, Canis lupus familiaris; parameters: dose 2.5 mg/kg, route intravenous; conditions: in vivo
[33] = Ratio of AUC (0 to 24 hrs) to MIC for bacterial elimination in Beagle dog infected with Staphylococcus intermedius clinical isolate at 2.5 mg/kg, im; format: functional; conditions: route intramuscular
[34] = Bioavailability in Beagle dog at 2.5 mg/kg, im; format: ADME, organism-based, Canis lupus familiaris; conditions: in vivo
[35] = T>MIC in Beagle dog infected with Escherichia coli at 2.5 mg/kg, iv; format: functional
[36] = Volume of distribution at steady state in Beagle dog at 2.5 mg/kg, iv; format: ADME, organism-based, Canis lupus familiaris; parameters: dose 2.5 mg/kg, route intravenous; conditions: in vivo
[37] = Ratio of AUC (0 to 24 hrs) to MIC in Beagle dog infected with Staphylococcus aureus at 2.5 mg/kg, iv; format: functional
[38] = Ratio of Cmax to MIC in Beagle dog infected with Staphylococcus intermedius at 2.5 mg/kg, im; format: functional; conditions: route intramuscular
[39] = Elimination rate constant in Beagle dog at 2.5 mg/kg, im; format: ADME, organism-based, Canis lupus familiaris; parameters: dose 2.5 mg/kg, route intramuscular; conditions: in vivo
[40] = T>MIC in Beagle dog infected with Staphylococcus intermedius at 2.5 mg/kg, iv; format: functional
[41] = tested on: Staphylococcus intermedius; experiment: Antibacterial activity against Staphylococcus intermedius clinical isolate infected in Beagle dog assessed as bacterial load at 2.5 mg/kg, im after 24 hrs; format: functional; conditions: route intramuscular
[42] = Ratio of Cmax to MIC in Beagle dog infected with Staphylococcus aureus at 2.5 mg/kg, im; format: functional; conditions: route intramuscular
[43] = Ratio of AUC (0 to 24 hrs) to MIC in Beagle dog infected with Proteus mirabilis at 2.5 mg/kg, iv; format: functional
[44] = Ratio of AUC (0 to 24 hrs) to MIC for bacteriostatic action in Beagle dog infected with Staphylococcus intermedius clinical isolate at 2.5 mg/kg, im; format: functional; conditions: route intramuscular
[45] = Ratio of Cmax to MIC in Beagle dog infected with Proteus mirabilis at 2.5 mg/kg, im; format: functional; conditions: route intramuscular
[46] = Ratio of AUC (0 to 24 hrs) to MIC in Beagle dog infected with Staphylococcus intermedius at 2.5 mg/kg, iv; format: functional
Staphylococcus aureus [47] = experiment: Antibacterial activity against Staphylococcus aureus after 30 hrs by broth microdilution method; format: functional, organism-based
Staphylococcus aureus [48] = experiment: Antibacterial activity against Staphylococcus aureus ATCC 29213 by broth microdilution method; format: functional
[49] = Ratio of AUC (0 to 24 hrs) to MIC in Beagle dog infected with Escherichia coli at 2.5 mg/kg, im; format: functional; conditions: route intramuscular
[50] = AUC (0 to 24 hrs) in Beagle dog at 2.5 mg/kg, im; format: ADME, organism-based, Canis lupus familiaris; parameters: time < 24 hr, dose 2.5 mg/kg, route intramuscular; conditions: plasma
[51] = Cmax in Beagle dog at 2.5 mg/kg, im; format: ADME, organism-based, Canis lupus familiaris; parameters: dose 2.5 mg/kg, route intramuscular; conditions: in vivo
[52] = Ratio of AUC (0 to 24 hrs) to MIC in Beagle dog infected with Staphylococcus aureus at 2.5 mg/kg, im; format: functional; conditions: route intramuscular

SMILES: C[C@@H]1CN(c2c(F)c(F)c3c(=O)c(C(=O)O)cn(C4CC4)c3c2F)C[C@H](C)N1 [ORBIFLOXACIN]
- T>MIC [1]: 9.15 h
- Ratio [2]: 19.1
- RatioAUC/MIC [3]: 15.5
- Activity [4]: Dose-dependent effect
- clearance [5]: 5.17 mL/min/kg
- MIC (Proteus mirabilis [6]): 0.5 µg/mL (≈ 1.26 µM)
- RatioAUC/MIC [7]: 134.6
- MRT inf [8]: 5.69 h
- k el [9]: 4.72e-05 s⁻¹
- half-life [10]: 4.23 h
- T>MIC [11]: 6.5 h
- MRT last [12]: 5.31 h
- MIC (Staphylococcus aureus [13]): 0.25 µg/mL (≈ 0.632 µM)
- AUC(0-inf) [14]: 8490 ng·h/mL
- MRT last [15]: 4.71 h
- AUC(0-inf) [16]: 8210 ng·h/mL
- AUC(0-t) at 24 h [17]: 8070 ng·h/mL
- Tmax [18]: 1.15 h
- T>MIC [19]: 9.15 h
- Activity (Proteus mirabilis [20]): Dose-dependent effect
- T>MIC [21]: 8.75 h
- T>MIC [22]: 5.6 h
- half-life [23]: 3.95 h
- MAT (Canis familiaris): 0.51 h
- T>MIC [24]: 21.3 h
- RatioAUC/MIC [25]: 31.1
- Activity (Escherichia coli [26]): Dose-dependent effect
- Vd [27]: 1.95 L/kg
- MIC [28]: 0.25 µg/mL (≈ 0.632 µM)
- MIC (Escherichia coli [29]): 0.06 µg/mL (≈ 0.152 µM)
- Ratio [30]: 29
- RatioAUC/MIC [31]: 31.8
- MRT inf [32]: 5.13 h
- RatioAUC/MIC [33]: 40
- bioavailability [34]: 100%
- T>MIC [35]: 21.1 h
- Vd [36]: 1.61 L/kg
- RatioAUC/MIC [37]: 32.3
- Ratio [38]: 4.61
- k el [39]: 4.72e-05 s⁻¹
- T>MIC [40]: 8.75 h
- CFU/ml [41]: 2.06
- Ratio [42]: 4.61
- RatioAUC/MIC [43]: 16.1
- RatioAUC/MIC [44]: 26.7
- Ratio [45]: 2.3
- RatioAUC/MIC [46]: 32.3
- Activity (Staphylococcus aureus [47]): Dose-dependent effect
- MIC (Staphylococcus aureus [48]): 0.5 µg/mL (≈ 1.26 µM)
- RatioAUC/MIC [49]: 129.8
- AUC(0-t) at 24 h [50]: 8370 ng·h/mL
- Cmax [51]: 1150 ng/mL
- RatioAUC/MIC [52]: 31.1
